In brackets after ≈: the same amount, converted by molar mass.
Assays:
[1] = test system: M. Bovis BCG Wild-type; test: microbe, parasite or virus in culture; assay type: cell-based; details: Mycobacterium tuberculosis variant bovis BCG
[2] = test system: M. Bovis BCG ΔMtpA; assay type: cell-based; details: for Resistance factor: ratio MICΔMtpA/MICwt
[3] = test system: M. Bovis BCG ΔMtpA + MspA; assay type: cell-based
[4] = test system: M. Bovis BCG ΔMtpA + MtpA; assay type: cell-based
[5] = test system: wild-type M. bovis BCG in human monocyte-derived macrophages (HMDM); assay type: cell-based
[6] = test system: ΔMtpA mutant of M. bovis BCG in human monocyte-derived macrophages (HMDM); assay type: cell-based
[7] = Channel activity analysis, planar lipid bilayer single channel recording; assay type: biochemical

Row | Molecule | MIC ([1]; wild-type strain) [µg/mL] | MIC for M. Bovis BCG ΔMtpA [2] [µg/mL] | Resistance factor [2] | MIC for M. Bovis BCG ΔMtpA + MspA [3] [µg/mL] | MIC for M. Bovis BCG ΔMtpA + MtpA [4] [µg/mL] | other results
1 | CC1(C)S[C@@H]2[C@H](NC(=O)[C@H](N)c3ccccc3)C(=O)N2[C@H]1C(=O)O [Ampicillin] | 30 (≈ 85.9 µM) | 960 | 32 | 60 | 60 | increased minimal inhibitory concentration (MIC) / resistance in the ΔMtpA strain [2]: 32 fold
2 | O=C(N[C@H](CO)[C@H](O)c1ccc([N+](=O)[O-])cc1)C(Cl)Cl [Chloramphenicol] | 4 (≈ 12.4 µM) | 64 | 16 | 8 | 8 | increased minimal inhibitory concentration (MIC) / resistance in the ΔMtpA strain [2]: 16 fold
3 | O=C(O)c1cn(C2CC2)c2cc(N3CCNCC3)c(F)cc2c1=O [Ciprofloxacin] |  |  |  | 2 | 2 | MIC [1]: 1 µg/mL (≈ 3.02 µM)
4 | CC[C@H]1OC(=O)[C@H](C)[C@@H](O[C@H]2C[C@@](C)(OC)[C@@H](O)[C@H](C)O2)[C@H](C)[C@@H](O[C@@H]2O[C@H](C)C[C@H](N(C)C)[C@H]2O)[C@](C)(OC)C[C@@H](C)C(=O)[C@H](C)[C@@H](O)[C@]1(C)O [Clarithromycin] | 0.125 (≈ 0.167 µM) | >2 | >16 | 0.5 | 0.25 | 
5 | CC[C@H]1OC(=O)[C@H](C)[C@@H](O[C@H]2C[C@@](C)(OC)[C@@H](O)[C@H](C)O2)[C@H](C)[C@@H](O[C@@H]2O[C@H](C)C[C@H](N(C)C)[C@H]2O)[C@](C)(O)C[C@@H](C)C(=O)[C@H](C)[C@@H](O)[C@]1(C)O [Erythromycin A] | 16 (≈ 21.8 µM) |  | >16 | 32 | 16 | 
6 | CC[C@@H](CO)NCCN[C@@H](CC)CO [Ethambutol] | 0.125 (≈ 0.612 µM) | >1 | >8 | 0.125 | 0.125 | change of resistance / MIC in the ΔMtpA mutant, in words [2]: more than eight-fold
7 | NNC(=O)c1ccncc1 [Isoniazid] | 0.25 (≈ 1.82 µM) | >1 | >4 | 0.25 |  | change of resistance / MIC in the ΔMtpA mutant, in words [2]: more than eight-fold
8 | C[C@H]1COc2c(N3CCN(C)CC3)c(F)cc3c(=O)c(C(=O)O)cn1c23 [Levofloxacin] | 0.125 (≈ 0.346 µM) |  |  |  |  | 
9 | COc1c(N2C[C@@H]3CCCN[C@@H]3C2)c(F)cc2c(=O)c(C(=O)O)cn(C3CC3)c12 [Moxifloxacin] | 0.5 (≈ 1.25 µM) |  |  |  |  | 
10 | CCn1cc(C(=O)O)c(=O)c2cc(F)c(N3CCNCC3)cc21 [Norfloxacin] | 1 (≈ 3.13 µM) | 4 | 4 | 2 | 2 | 
11 | CC1COc2c(N3CCN(C)CC3)c(F)cc3c(=O)c(C(=O)O)cn1c23 (stereo not shown) [Ofloxacin] | 0.25 (≈ 0.692 µM) |  |  |  |  | 
12 | CO[C@H]1/C=C/O[C@@]2(C)Oc3c(C)c(O)c4c(O)c(c(/C=N/N5CCN(C)CC5)c(O)c4c3C2=O)NC(=O)/C(C)=C\C=C\[C@H](C)[C@H](O)[C@@H](C)[C@@H](O)[C@@H](C)[C@H](OC(C)=O)[C@@H]1C [Rifampicin] |  |  |  |  |  | MIC [1]: 0.008 µg/mL (≈ 0.00972 µM)
13 | [H]/N=C(/N)N[C@H]1[C@H](O)[C@@H](O)[C@H](O[C@@H]2O[C@@H](C)[C@](O)(C=O)[C@H]2O[C@@H]2O[C@@H](CO)[C@H](O)[C@@H](O)[C@@H]2NC)[C@@H](N/C(N)=N\[H])[C@@H]1O [Streptomycin] | 0.16 (≈ 0.275 µM) | 0.64 | 4 | 0.32 | 0.32 | 
14 | CN(C)[C@@H]1C(O)=C(C(N)=O)C(=O)[C@@]2(O)C(O)=C3C(=O)c4c(O)cccc4[C@@](C)(O)[C@H]3C[C@@H]12 [Tetracycline] |  |  |  |  |  | MIC [1]: 31.2 µg/mL (≈ 70.3 µM)
15 | CN[C@H](CC(C)C)C(=O)N[C@H]1C(=O)N[C@@H](CC(N)=O)C(=O)N[C@H]2C(=O)N[C@H]3C(=O)N[C@H](C(=O)N[C@H](C(=O)O)c4cc(O)cc(O)c4-c4cc3ccc4O)[C@H](O)c3ccc(c(Cl)c3)Oc3cc2cc(c3O[C@@H]2O[C@H](CO)[C@@H](O)[C@H](O)[C@H]2O[C@H]2C[C@](C)(N)[C@H](O)[C@H](C)O2)Oc2ccc(cc2Cl)[C@H]1O [Vancomycin] |  | 20 | 4 | 10 | 10 | MIC [1]: 5 µg/mL (≈ 3.45 µM)
16 | N[C@@H]1CON=C1O [cycloserine] | 4 (≈ 39.2 µM) | 8 | 2 | 4 | 4 | 
17 | Nc1ccc(C(=O)O)c(O)c1 [p-aminosalicylic acid] | 2 (≈ 13.1 µM) | >8 | >4 | 2 | 2 | change of resistance / MIC in the ΔMtpA mutant, in words [2]: more than eight-fold
18 | γ-interferon: human IFN-γ, induces nitric oxide synthase activity in macrophages |  |  |  |  |  | bacteria recovered from stimulated HMDMs [5]: drastic decrease in bacteria recovered; survival in treated macrophages compared to untreated cells [6]: no significant difference
19 | N-terminal domain of MtpA: N-terminal domain (aa 1-444) of MtpA (Rv3903c), HA- and His-tagged, expressed in and purified from M. smegmatis (protein, UniProt O05442 1-444, looked up, fragment, HA and His tags, N-terminal domain (aa 1-444) of MtpA (Rv3903c), HA- and His-tagged, expressed in and purified from M. smegmatis) MAPLAVDPAALDSAGGAVVAAGAGLGAVISSLTAALAGCAGMAGDDPAGAVFGRSYDGSAAALVQAMSVARNGLCNLGDGVRMSAHNYSLAEAMSDVAGRAAPLPAPPPSGCVGVGAPPSAVGGGGGAPKGWGWVAPYIGMIWPNGDSTKLRAAAVAWRSAGTQFALTEIQSTAGPMGVIRAQQLPEAGLIESAFADAYASTTAVVGQCHQLAAQLDAYAARIDAVHAAVLDLLARICDPLTGIKEVWEFLTDQDEDEIQRIAHDIAVVVDQFSGEVDALAAEITAVVSHAEAVITAMADHAGKQWDRFLHSNPVGVVIDGTGQQLKGFGEEAFGMAKDSWDLGPLRASIDPFGWYRSWEEMLTGMAPLAGLGGENAPGVVESWKQFGKSLIHWDEWTTNPNEALGKTVFDAATLALPGGPLSKLGSKGRDILAGVRGLKERLE |  |  |  |  |  | most frequent (main) single channel conductance [7]: 4.0±0.2 nS
20 | N-terminal domain of MtpA (aa 49-444): truncated N-terminal domain of MtpA, codon optimized, Strep-, HA- and His-tagged, purified from E. coli (protein, UniProt O05442 49-444, looked up, fragment, Strep, HA and His tags, truncated N-terminal domain of MtpA, codon optimized, Strep-, HA- and His-tagged, purified from E. coli) GAVFGRSYDGSAAALVQAMSVARNGLCNLGDGVRMSAHNYSLAEAMSDVAGRAAPLPAPPPSGCVGVGAPPSAVGGGGGAPKGWGWVAPYIGMIWPNGDSTKLRAAAVAWRSAGTQFALTEIQSTAGPMGVIRAQQLPEAGLIESAFADAYASTTAVVGQCHQLAAQLDAYAARIDAVHAAVLDLLARICDPLTGIKEVWEFLTDQDEDEIQRIAHDIAVVVDQFSGEVDALAAEITAVVSHAEAVITAMADHAGKQWDRFLHSNPVGVVIDGTGQQLKGFGEEAFGMAKDSWDLGPLRASIDPFGWYRSWEEMLTGMAPLAGLGGENAPGVVESWKQFGKSLIHWDEWTTNPNEALGKTVFDAATLALPGGPLSKLGSKGRDILAGVRGLKERLE |  |  |  |  |  | single channel conductance of protein purified from E. coli compared to that purified from M. smegmatis [7]: almost identical
